Molecules are shown by their SMILES. The source made the active and inactive calls. The calls are words filed in the database; no cut-off is given here.

Experiment [1] concerns the target T1, Cholinesterase (Homo sapiens, UniProt P06276). Put plainly: Inhibition of BChE (unknown origin) by Dixon plot analysis.
Experiment [2] concerns the target Beta-secretase 1 (Homo sapiens, UniProt P56817). Put plainly: Inhibition of human recombinant BACE1 by fluorescence resonance energy transfer (FRET) assay.
The target of experiment [3] is T1, Cholinesterase. Kind of experiment: Inhibition of BChE (unknown origin) using butyrylthiocholine as substrate assessed as substrate hydrolysis by spectrophotometric/Ellman method. On the technique in general: In Ellman's method for cholinesterases, released thiocholine reacts with DTNB.
For experiment [4], the target named is T1, Cholinesterase. Kind of experiment: Mixed type inhibition of BChE (unknown origin) by Lineweaver-Burk plot analysis.
Experiment [5] addresses T2, Acetylcholinesterase (Homo sapiens, UniProt P22303). Put plainly: Inhibition of AChE (unknown origin) using acetylthiocholine as substrate assessed as substrate hydrolysis by spectrophotometric/Ellman method.
Experiment [6] deals with T2, Acetylcholinesterase. Kind of experiment: Mixed type inhibition of AChE (unknown origin) by Lineweaver-Burk plot analysis.
Experiment [7] has as its target T2, Acetylcholinesterase. Put plainly: Inhibition of AChE (unknown origin) by Dixon plot analysis.

T1 sequence (P06276 whole entry): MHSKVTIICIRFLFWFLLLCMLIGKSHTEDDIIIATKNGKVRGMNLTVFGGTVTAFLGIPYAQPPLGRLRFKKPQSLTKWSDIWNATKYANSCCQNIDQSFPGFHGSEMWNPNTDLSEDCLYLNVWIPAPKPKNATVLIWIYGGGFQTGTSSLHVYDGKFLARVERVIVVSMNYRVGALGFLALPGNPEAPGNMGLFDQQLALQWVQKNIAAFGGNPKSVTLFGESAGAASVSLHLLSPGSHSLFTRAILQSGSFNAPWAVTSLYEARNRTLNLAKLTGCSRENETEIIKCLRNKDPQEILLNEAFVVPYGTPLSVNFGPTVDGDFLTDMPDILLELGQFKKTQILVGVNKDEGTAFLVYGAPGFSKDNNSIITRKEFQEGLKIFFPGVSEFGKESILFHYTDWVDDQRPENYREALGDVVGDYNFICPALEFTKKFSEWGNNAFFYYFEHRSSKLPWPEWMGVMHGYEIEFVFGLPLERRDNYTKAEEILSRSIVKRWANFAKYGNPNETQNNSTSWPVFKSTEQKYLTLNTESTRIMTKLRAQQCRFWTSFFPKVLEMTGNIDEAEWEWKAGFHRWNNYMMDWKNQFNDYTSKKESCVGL
Chain of Beta-secretase 1 (P56817 whole entry): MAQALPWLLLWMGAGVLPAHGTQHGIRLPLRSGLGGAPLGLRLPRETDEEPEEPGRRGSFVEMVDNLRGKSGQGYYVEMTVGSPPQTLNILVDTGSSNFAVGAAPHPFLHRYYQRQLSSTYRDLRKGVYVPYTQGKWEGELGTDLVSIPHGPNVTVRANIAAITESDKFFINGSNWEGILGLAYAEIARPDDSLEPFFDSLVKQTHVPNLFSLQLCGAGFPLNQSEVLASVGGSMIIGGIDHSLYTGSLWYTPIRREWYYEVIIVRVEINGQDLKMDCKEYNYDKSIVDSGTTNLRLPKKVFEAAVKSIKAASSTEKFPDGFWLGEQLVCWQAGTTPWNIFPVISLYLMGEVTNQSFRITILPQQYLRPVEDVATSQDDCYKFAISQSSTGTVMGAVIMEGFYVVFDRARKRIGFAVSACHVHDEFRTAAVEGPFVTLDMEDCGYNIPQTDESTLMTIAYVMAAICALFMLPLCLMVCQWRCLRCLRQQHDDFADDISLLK
T2 sequence (P22303 whole entry): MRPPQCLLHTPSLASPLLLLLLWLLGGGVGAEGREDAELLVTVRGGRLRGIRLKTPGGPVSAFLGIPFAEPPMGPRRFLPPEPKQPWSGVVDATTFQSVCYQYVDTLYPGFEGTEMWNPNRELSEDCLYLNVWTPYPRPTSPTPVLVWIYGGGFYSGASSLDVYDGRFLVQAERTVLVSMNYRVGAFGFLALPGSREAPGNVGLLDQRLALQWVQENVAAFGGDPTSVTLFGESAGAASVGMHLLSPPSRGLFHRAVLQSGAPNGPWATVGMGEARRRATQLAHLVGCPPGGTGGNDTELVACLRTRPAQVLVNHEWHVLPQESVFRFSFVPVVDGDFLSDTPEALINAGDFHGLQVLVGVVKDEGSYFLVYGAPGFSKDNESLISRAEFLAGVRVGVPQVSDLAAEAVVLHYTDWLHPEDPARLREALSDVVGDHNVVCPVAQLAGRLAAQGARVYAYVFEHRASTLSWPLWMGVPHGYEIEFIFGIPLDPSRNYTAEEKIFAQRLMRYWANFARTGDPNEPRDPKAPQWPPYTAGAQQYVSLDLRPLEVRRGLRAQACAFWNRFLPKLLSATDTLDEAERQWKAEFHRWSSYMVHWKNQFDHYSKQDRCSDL

`CC1(C)C(=O)CC[C@@]2(C)[C@H]1CC[C@@]1(C)CC3=CC(=O)[C@H]4C(C)(C)[C@H](O)CC[C@]4(C)[C@H]3CC[C@@H]12` gave a Ki in experiment [1] of 4.78 µM. Besides, the IC50 in experiment [2] is 0.23 µM; in experiment [3], above 30 µM; in experiment [5], 10.7 µM. Besides, the inhibition result in experiment [4] is “Active”.

Consider `C[C@@]12CC[C@@H]3[C@](C)(CC[C@H](OC(=O)CCc4ccc(O)cc4)[C@]3(C)C(=O)O)[C@H]1CC[C@H]1C(=CC[C@@H]3[C@]1(C)CC[C@@H](O)[C@]3(C)CO)C2`, for which the Ki in experiment [1] was 0.99 µM; in experiment [7], 7.97 µM. Also, the inhibition result in experiment [6] is “Active”. Also, the figures for the IC50 in experiment [2], in experiment [3] and in experiment [5] were above 10 µM, 0.42 µM and 1.69 µM, respectively.

On to `COC(=O)[C@]1(C)[C@@H]2CC[C@@]3(C)CC4=CC(=O)[C@@H]5[C@](C)(CC[C@@H](O)[C@]5(C)CO)[C@H]4CC[C@@H]3[C@@]2(C)CC[C@@H]1O` [LYCERNUIC KETONE A], for which the IC50 in experiment [2] was above 10 µM; in experiment [3], above 30 µM; in experiment [5], above 30 µM.

Regarding `CC1(C)[C@H](O)CC[C@@]2(C)[C@H]1CC[C@@]1(C)CC3=CC[C@H]4C(C)(C)[C@@H](O)CC[C@]4(C)[C@H]3CC[C@@H]12`, affinity in experiment [1] was put at a Ki of 4.88 µM. In addition, the IC50 in experiment [2] is above 10 µM; in experiment [3], 1.37 µM; in experiment [5], above 30 µM. In addition, the inhibition result in experiment [4] was “Active”.

Turning to `C[C@@]12CC[C@@H]3[C@](C)(CC[C@H](O)[C@]3(C)C(=O)O)[C@H]1CC[C@H]1C(=CC(=O)[C@@H]3[C@]1(C)CC[C@@H](O)[C@]3(C)CO)C2`, the figures for the IC50 in experiment [2], in experiment [3] and in experiment [5] were above 10 µM, above 30 µM and above 30 µM, respectively.

Consider `CC1(C)[C@H](O)CC[C@@]2(C)[C@H]1CC[C@@]1(C)CC3=CC[C@H]4C(C)(C)[C@H](O)CC[C@]4(C)[C@H]3CC[C@@H]12`, for which the figures for the IC50 in experiment [2], in experiment [3] and in experiment [5] were above 10 µM, above 30 µM and above 30 µM, respectively.

With `C[C@@]12CC[C@@H]3[C@](C)(CC[C@H](OC(=O)c4ccc(O)cc4)[C@]3(C)C(=O)O)[C@H]1CC[C@@H]1[C@@]3(C)CC[C@@H](O)[C@](C)(CO)[C@@H]3C[C@H](O)[C@@]1(O)C2`, the IC50 in experiment [2] is 0.31 µM; in experiment [3], above 30 µM; in experiment [5], above 30 µM.

Take `CC1(C)[C@H](O)CC[C@]2(C)[C@H]3CC[C@H]4[C@@](C)(CC[C@@H]5[C@]4(C)CC[C@@H](O)[C@]5(C)C(=O)O)CC3=CC(=O)[C@@H]12`: the IC50 in experiment [2] is above 10 µM; in experiment [3] it was above 30 µM; in experiment [5], above 30 µM.

In the case of `CCCC[C@@H](O)/C=C/C=C/C(=O)O`, the inhibition result in experiment [6] was “Active”. The figures for the IC50 in experiment [2], in experiment [3] and in experiment [5] were 6.91 µM, above 30 µM and 0.22 µM, respectively. The compound also returned a Ki in experiment [7] of 1.17 µM.

Consider `CC(=O)O[C@H]1CC[C@@]2(C)[C@@H](CC[C@@]3(C)C[C@@]4(O)CC[C@H]5C(C)(C)[C@@H](OC(C)=O)CC[C@]5(C)[C@H]4CC[C@@H]32)C1(C)C`, for which the inhibition result in experiment [6] was “Active”. For the same compound, the IC50 was above 10 µM in experiment [2], above 30 µM in experiment [3] and 0.91 µM in experiment [5]. Besides, the affinity in experiment [7] corresponds to a Ki of 2.49 µM.

As for `COc1ccc(C(=O)O[C@H]2CC[C@@]3(C)[C@@H](CC[C@@]4(C)C[C@@]5(O)[C@H](CC[C@@H]43)[C@@]3(C)CC[C@@H](O)C(C)(C)[C@@H]3C[C@@H]5O)[C@@]2(C)C(=O)O)cc1O`, the figures for the IC50 in experiment [2], in experiment [3] and in experiment [5] were 0.98 µM, above 30 µM and 9.98 µM, respectively.

Consider `CC1(C)[C@@H](O)CC[C@@]2(C)[C@H]1CC[C@@]1(C)C[C@@]3(O)CC[C@H]4C(C)(C)[C@@H](O)CC[C@]4(C)[C@H]3CC[C@@H]12`, for which the IC50 in experiment [2] is above 10 µM; in experiment [3], above 30 µM; in experiment [5], above 30 µM.

As for `C[C@@]12CC[C@@H]3[C@](C)(CC[C@H](OC(=O)/C=C/c4ccc(O)cc4)[C@]3(C)C(=O)O)[C@H]1CC[C@H]1C(=CC[C@@H]3[C@]1(C)CC[C@@H](O)[C@]3(C)CO)C2`, the half-inhibitory concentration (IC50) in experiment [2] was 1.07 µM; in experiment [3] it was above 30 µM; in experiment [5], above 30 µM.

As a reminder, the Ki is the dissociation constant of the complex between target and ligand, obtained from inhibition or displacement. High values mean lower affinity, low ones higher affinity. As usually defined, the IC50 is the midpoint of a concentration-inhibition curve.

For the origin of these results see ChEMBL document CHEMBL3585347, “Isolation of cholinesterase and β-secretase 1 inhibiting compounds from Lycopodiella cernua” (Bioorg Med Chem, 2015).
